Drawing on patent publication US12168662B1, “Pyrido[4′,3′:4,5]pyrrolo[2,3-c][2,7]naphthyridines compounds as CK2 inhibitors” (KING FAISAL UNIVERSITY, priority 2023, dated 2024), this text covers IC50 for 1 compound.

The IC50 is the point on the concentration scale where inhibition reaches its midpoint.

One assay relates to HL60 (leukemia). Description: In vitro cytotoxic activity assay (MTT). It is filed as cell-based. The settings on record: Homo sapiens, HL-60; HL60 cells, exposed for 96 hours, 50% inhibition of cell proliferation; read-out: Cytotoxicity activity IC50, HL60 (leukemia). The method, then: (§1) Compounds 1-16 were screened for their in vitro cytotoxic activity utilizing a 3-(4,5-dimethyl-thiazol-2-yl)-2,5-diphenyltetrazolium bromide (MTT) assay against selected cancer human cell lines consisting of PC3 (prostate), HCT116 (colon), A375 (melanoma), H1299 (lung), MIAPaCa-2 (pancreas), HL60 (leukemia), MCF7 (breast), MDA-MB-231 (breast) (T. Mosmann, J. Immunol. Meth., 1983, 65, 55-63). The cells were cultured at 37° C. in RMPI1640 medium supplemented with 10% fetal bovine serum, 50 IU/mL penicillin, and 50 μg/mL streptomycin in a 5% CO2 incubator. All cells were sub-cultured 3 times/week by trypsinisation. Viable cells were seeded and allowed to adhere for 12 hours before a test drug was added in 96-well plates at an initial density of 1.0×10^5 cells/mL. Tumor cell lines were separately exposed to various concentrations of the tested compounds followed by incubation at a temperature of 37° C. during 96 hours inside a medium of fresh RMPI 1640. Cells were subsequently incubated at 37° C. using MTT at 0.5 mg/mL during 4 hours. After removal of supernatant, formazan crystals were dissolved in isopropanol and the optical density was measured at 570 nm. CX-4945 was used as a positive control.

For the next assay, the system named is H1299 (lung). The assay is described as follows: In vitro cytotoxic activity assay (MTT). The settings on record: Homo sapiens, NCI-H1299; H1299 cells, exposed for 96 hours, 50% inhibition of cell proliferation; read-out: Cytotoxicity activity IC50, H1299 (lung). The format is cell-based. As to the method: as §1
For the next assay, the system named is MDA-MB-231 (breast). The assay is described as follows: In vitro cytotoxic activity assay (MTT). It is filed as cell-based. The settings on record: Homo sapiens; MDA-MB-231 cells, exposed for 96 hours, 50% inhibition of cell proliferation; read-out: Cytotoxicity activity IC50, MDA-MB-231 (breast). The method, then: as §1
The subject of the next assay is A375 (melanoma). Description: In vitro cytotoxic activity assay (MTT). The settings on record: Homo sapiens, A-375; A375 cells, exposed for 96 hours, 50% inhibition of cell proliferation; read-out: Cytotoxicity activity IC50, A375 (melanoma). It is filed as cell-based. The method, then:
as §1

The next assay relates to MCF7 (breast). Description: In vitro cytotoxic activity assay (MTT). The format is cell-based. The settings on record: Homo sapiens; MCF7 cells, exposed for 96 hours, 50% inhibition of cell proliferation; read-out: Cytotoxicity activity IC50, MCF7 (breast). The method, then: as §1
The subject of a further assay is HCT116 (colon). Description: In vitro cytotoxic activity assay (MTT). It is filed as cell-based. The settings on record: Homo sapiens, HCT-116; HCT116 cells, exposed for 96 hours, 50% inhibition of cell proliferation; read-out: Cytotoxicity activity IC50, HCT116 (colon). The method, then:
as §1

Another assay relates to PC3 (prostate). Description: In vitro cytotoxic activity assay (MTT). The format is cell-based. The settings on record: Homo sapiens, PC-3; PC3 cells, exposed for 96 hours, 50% inhibition of cell proliferation; read-out: Cytotoxicity activity IC50, PC3 (prostate). The method, then:
as §1

In a further assay the test system is MIAPaCa-2 (pancreas). Description: In vitro cytotoxic activity assay (MTT). It is filed as cell-based. The settings on record: Homo sapiens, MIA PaCa-2; MIAPaCa-2 cells, exposed for 96 hours, 50% inhibition of cell proliferation; read-out: Cytotoxicity activity IC50, MIAPaCa-2 (pancreas). The method, then: as §1
Assay [1] has as its target T1, recombinant human CK2 (RRββ-holoenzyme) (Homo sapiens, UniProt P68400).
T1 construct: purchased Millipore
Description: CK2 Kinase Assay (radiometric, [γ-33P] ATP). It is filed as biochemical. The settings on record: final ATP concentration 15 μM, 10 min at 30° C., eight concentrations; read-out: protein kinase CK2 activity IC50. The method, then:
CK2 Kinase Assay was conducted using the protocol as described in Pierre F. et al; J. Med. Chem. 2011, 54, 635-654. The tested compounds in aqueous solution were added at a volume of 10 μL to a reaction mixture comprising 10 μL of assay dilution buffer (ADB; 20 mM MOPS, pH 7.2, 25 mM β-glycerol phosphate, 5 mM EGTA, 1 mM sodium orthovanadate, and 1 mM dithiothreitol), 10 μL of substrate peptide (RRRDDDSDDD, dissolved in ADB at a concentration of 1 mM), 10 μL of recombinant human CK2 (RRββ-holoenzyme, 25 ng dissolved in ADB; Millipore). Reactions were initiated by the addition of 10 μL of ATP solution (90% 75 mMMgC2, 75 μM ATP (final ATP concentration: 15 μM) dissolved in ADB; 10% [γ-33P] ATP (stock 1 mCi/100 μL; 3000 Ci/mmol (Perkin-Elmer) and maintained for 10 min at 30° C. The reactions were quenched with 100 μL of 0.75% phosphoric acid and then transferred to and filtered through a phosphor cellulose filter plate (Millipore). After washing each well five times with 0.75% phosphoric acid, the plate was dried under vacuum for 5 min and, following the addition of 15 μL of scintillation fluid to each well, the residual radioactivity was measured using a Wallac luminescence counter. The IC50 values were derived from eight concentrations of test inhibitors.

SMILES strings stand for the structures.

T1 sequence (P68400 whole entry): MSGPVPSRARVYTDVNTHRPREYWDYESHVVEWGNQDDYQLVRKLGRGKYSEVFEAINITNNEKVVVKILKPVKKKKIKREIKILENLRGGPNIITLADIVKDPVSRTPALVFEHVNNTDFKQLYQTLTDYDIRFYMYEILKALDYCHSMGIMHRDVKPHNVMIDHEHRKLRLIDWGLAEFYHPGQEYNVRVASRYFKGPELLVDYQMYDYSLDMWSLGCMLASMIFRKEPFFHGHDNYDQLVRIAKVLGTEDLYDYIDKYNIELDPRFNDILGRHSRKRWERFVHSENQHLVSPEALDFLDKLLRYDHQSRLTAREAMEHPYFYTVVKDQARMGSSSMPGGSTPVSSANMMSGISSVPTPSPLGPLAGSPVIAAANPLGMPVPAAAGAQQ
T1 sequence (P67870 whole entry partner): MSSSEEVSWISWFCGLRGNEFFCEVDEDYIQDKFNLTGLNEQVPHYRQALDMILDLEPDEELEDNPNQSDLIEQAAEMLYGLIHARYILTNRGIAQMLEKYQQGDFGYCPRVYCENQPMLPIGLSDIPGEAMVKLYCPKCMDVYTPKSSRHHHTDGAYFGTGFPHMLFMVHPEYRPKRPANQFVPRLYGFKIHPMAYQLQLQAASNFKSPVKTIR

For the compound `Clc1cccc(Nc2nc3[nH]c4cnccc4c3c3ccncc23)c1` [Compound 1, N-(3-chlorophenyl)-7H-pyrido[4′,3′:4,5]pyrrolo[2,3-c][2,7]naphthyridin-5-amine], the IC50 in the assay with HL60 (leukemia) was found to be 3.3 µM; in the assay on H1299 (lung) it was 1.8 µM; in the assay with MDA-MB-231 (breast), 4.4 µM; in the assay on A375 (melanoma), 4.7 µM; with MCF7 (breast) it was 5.2 µM; in the assay with HCT116 (colon), 1.5 µM. Moreover, the figures for the IC50 (in the assay on PC3 (prostate); with MIAPaCa-2 (pancreas); in assay [1]) were 1.3 µM, 2.4 µM and 0.334 µM, respectively.
